From publication PMC3723537, “Structural Basis for Native Agonist and Synthetic Inhibitor Recognition by the Pseudomonas aeruginosa Quorum Sensing Regulator PqsR (MvfR)” (PLoS Pathogens, 2013)
Like-named read-outs stand apart in the source and are kept apart here.

Experiments:
PqsR [1] = biological target: T1, PqsR (Pseudomonas aeruginosa, UniProt Q9I4X0); assay: cell-based; set-up: assayed for their agonist and antagonist activities in a whole P. aeruginosa bacterial cell assay; endogenous in cells; host or cells: P. aeruginosa PAO1 wild type, ΔpqsA or ΔpqsAH strains carrying a chromosomal (mini)CTX::pqsA'-lux fusion
T1 sequence (Q9I4X0 1-332): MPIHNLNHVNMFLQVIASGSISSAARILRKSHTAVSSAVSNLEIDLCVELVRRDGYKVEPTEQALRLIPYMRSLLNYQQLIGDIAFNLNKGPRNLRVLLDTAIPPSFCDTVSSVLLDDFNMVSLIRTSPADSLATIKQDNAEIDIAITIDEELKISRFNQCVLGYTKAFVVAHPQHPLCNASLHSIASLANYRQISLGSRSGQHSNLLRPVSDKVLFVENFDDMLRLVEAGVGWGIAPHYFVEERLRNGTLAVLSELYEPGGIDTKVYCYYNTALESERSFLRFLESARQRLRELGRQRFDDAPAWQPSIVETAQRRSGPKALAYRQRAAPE

PqsR [2] = biological target: T1, PqsR; set-up: assayed for their agonist and antagonist activities in a whole P. aeruginosa bacterial cell assay; endogenous in cells; host or cells: P. aeruginosa PAO1 wild type, ΔpqsA or ΔpqsAH strains carrying a chromosomal (mini)CTX::pqsA'-lux fusion; method as in Xiao et al. [21]; conditions: different P. aeruginosa strain and reporter assay; ref Xiao et al. [21]; cited from earlier work
PqsR Leu207Glu = PqsR Leu207Glu (Pseudomonas aeruginosa, UniProt Q9I4X0, L207E); assay: Response of PqsR-6His ligand binding site variants to PQS and HHQ, pqsA'-lux in ΔpqsA ΔpqsH ΔpqsR strain; type: cell-based; conditions: Leu207Glu mutation; co-inducer 40 µM
PqsR [3] = biological target: T1, PqsR; set-up: assayed for their agonist and antagonist activities in a whole P. aeruginosa bacterial cell assay; endogenous in cells; host or cells: P. aeruginosa PAO1 wild type, ΔpqsA or ΔpqsAH strains carrying a chromosomal (mini)CTX::pqsA'-lux fusion; method as in PMID 17922753; conditions: whole P. aeruginosa cell assays; cited from earlier work
PqsR [4] = biological target: T1, PqsR; assay: cell-based; set-up: assayed for their agonist and antagonist activities in a whole P. aeruginosa bacterial cell assay; endogenous in cells; host or cells: P. aeruginosa PAO1 wild type, ΔpqsA or ΔpqsAH strains carrying a chromosomal (mini)CTX::pqsA'-lux fusion; conditions: Figure 2 (AQs); P. aeruginosa ΔpqsA CTX::pqsA'-lux strain; read-out: Agonist EC50 ±SD
PqsR [5] = biological target: T1, PqsR; conditions: cited from earlier work
P. aeruginosa = type: cell-based; conditions: GFP-tagged wild type, flow conditions
P. aeruginosa PAO1 [6] = assay: AQ production by LC-MS/MS of culture extracts; type: cell-based, Pseudomonas aeruginosa; conditions: PAO1 grown with 200 µM; semi-quantitative
Procedure: (§1) The impact of 3-NH2-7Cl-C9-QZN on (a) AQ production was assayed by LC MS/MS after extracting bacterial cultures with acidified ethyl acetate; (b) pyocyanin was quantified spectrophotometrically and (c) biofilm development was examined using a Bioflux 200 microfluidics device (Fluxion Biosciences; in conjunction with GFP-labelled P. aeruginosa strains, [53]). All assays were performed in triplicate at least twice.

lecA = type: cell-based; conditions: P. aeruginosa PAO1, compared with control
phzA1 promoter = type: cell-based; conditions: 12.5 µM; data not shown
PqsR [7] = biological target: T1, PqsR; assay: cell-based; set-up: assayed for their agonist and antagonist activities in a whole P. aeruginosa bacterial cell assay; endogenous in cells; host or cells: P. aeruginosa PAO1 wild type, ΔpqsA or ΔpqsAH strains carrying a chromosomal (mini)CTX::pqsA'-lux fusion; remark: listed apart in the source
P. aeruginosa PAO1 [8] = assay: Pyocyanin production, quantified spectrophotometrically; type: cell-based, Pseudomonas aeruginosa; conditions: PAO1 cultures, 50 or 100 µM
Procedure: as §1

PqsR [9] = biological target: T1, PqsR; type: cell-based; set-up: assayed for their agonist and antagonist activities in a whole P. aeruginosa bacterial cell assay; endogenous in cells; host or cells: P. aeruginosa PAO1 wild type, ΔpqsA or ΔpqsAH strains carrying a chromosomal (mini)CTX::pqsA'-lux fusion; conditions: 100 µM QZN; ΔpqsA mutant

SMILES: CCCCCCCc1[nH]c2ccccc2c(=O)c1O [compound 1, 2-heptyl-3-hydroxy-4(1H)-quinolone]
- EC50 (PqsR [1]; Figure 2 (AQs), P. aeruginosa ΔpqsAH CTX::pqsA'-lux strain, read-out: Agonist EC50 ±SD): 3.8 ± 1.6 µM
- Induction of the pqsA promoter compared with HHQ (PqsR [1]; P. aeruginosa ΔpqsA ΔpqsH double mutant): ~3 fold
- Induction compared with HHQ (PqsR [2]): 100 fold
- Response, % of pqsA promoter activity with respect to strain expressing PqsR-6His (PqsR Leu207Glu): 39%
- EC50 for PqsR-dependent activation of pqsA (PqsR [3]): low micromolar range
- EC50 (PqsR [4]): 1.9 µM

SMILES: CCCCCCCc1cc(=O)c2ccc(C(F)(F)F)cc2[nH]1 [7-CF3-substituted HHQ]
- Agonist activity relative to HHQ (PqsR [5]): about 50%

SMILES: CCCCCCCCCc1nc2cc(Cl)ccc2c(=O)n1N [compound 23]
- Biofilm development (P. aeruginosa): reduced surface area coverage
- Production of HHQ, NHQ, their N-oxides and PQS (P. aeruginosa PAO1 [6]): reduced to very low levels
- Expression of lecA (lecA): reduced
- Reduction of phzA1 promoter activity (phzA1 promoter): ~50%
- IC50 (PqsR [7]): 5 ± 1.6 µM
- Pyocyanin levels (P. aeruginosa PAO1 [8]): substantially reduced
- PQS concentration that competitively overcomes QZN-mediated PqsR inhibition (PqsR [9]): above 25 µM
